Experimental data: patent US5648366A, “Substituted pyrrolidin-3-yl-alkyl-piperidines” (Merrell Pharmaceuticals Inc., priority 1995, dated 1997)

Tests used:
[1] = target: T1, NK1 receptor (Homo sapiens, UniProt P25103); assay: Antagonism of NK1 receptor mediated (SP-induced) phosphatidylinositol turnover in UC11 cells; type: cell-based
T1 construct: endogenous in cells; host or cells: UC11 cells
Method: (§1) ANTAGONISM OF NK1 AND NK2 RECEPTOR MEDIATED PHOSPHATID[…]
(§2) Tachykinin-mediated inositol phosphate accumulation was measured in UC11 or SKLKB82#3 cells in the presence and absence of NK1 or NK2 receptor antagonists, respectively. Tissues were incubated in Krebs-Henseleit buffer at 37° C. with 95% O2 -5% CO2 gassing. Tissues were then incubated with fresh buffer containing 100 μCi of myo-[2-^3 H(N)] inositol at 37° C. for 60 min with gentle gassing. After washing twice in 5 ml room temperature buffer containing 10 mM LiCl, tissues were incubated for 30 min at room temperature with a buffer change at 15 min. Buffer was removed and Krebs-Henseleit buffer (containing 40 μg/ml bacitracin, 4 μg/ml each of leupeptin and chymostatin, 0.1% bovine serum albumin and 10 mM each of thiorphan and LiCl) added. After 15 min, SP was added to UC11 cells or NKA to SKLKB82#3 cells at various concentrations to start the reaction. After incubation for 60 min at room temperature the reaction was terminated by addition of 930 μl chloroform: methanol (1:2 by volume) to each tube, followed by 310 μl chloroform and 310 μl doubly distilled water. Samples were vortexed, centrifuged, and 0.9 ml of the aqueous (top) phase removed and added to 2 ml ddH2 O. The mixture was vortexed and loaded onto a 50% Bio-Rad AG 1-X8 (formate form, 100-200 mesh) exchange column (Bio-Rad Laboratories, Hercules, Calif.). The columns were washed, in order, with: 1) 10 ml doubly distilled water, 2) 5 ml of 5 mM disodium tetraborate/60 mM sodium formate, and 3) 5 ml of 1M ammonium formate/0.1M formic acid. The third elution was collected and 1 ml counted in 7 ml scintillation fluid. A 50 μl aliquot of the organic (bottom) phase was removed, dried in a scintillation vial and counted in 7 ml scintillation fluid.
(§3) The ratio of DPM in the aqueous phase aliquot (total inositol phosphates) to the DPM in the 50 μl organic phase aliquot (total [^3 H]inositol incorporated) was calculated for each sample. Data are expressed as a percent of agonist-induced accumulation of [^3 H]-inositol phosphates over basal levels. The ratios in the presence of test compound and/or standards were compared to the ratios for control samples (i.e. no stimulating agonist). Dose-response graphs were constructed and the abilities of the test compounds to inhibit tachykinin-induced phosphatidyinositol turnover determined with the aid of a computer program. […] Data is expressed as percent stimulation of total inositol phosphate accumulation over basal levels and normalized to the maximum response produced by SP. […] Schild analysis is performed using dose response curves (such as those presented in FIGS. 1a and 1b) to obtain a value indicative of the strength of a competitive antagonist and is expressed as the pA2, which is the negative logarithm of the molar concentration of antagonist which reduces the effect of a dose of agonist to one-half of that expected at the dose of agonist.

[2] = target: T2, NK2 receptor (Bos taurus, UniProt P05363); assay: Antagonism of NK2 receptor mediated (NKA-induced) phosphatidylinositol turnover in SKLKB82#3 cells; type: cell-based
T2 construct: expressed in transfected cells; host or cells: SKLKB82#3 cells (murine B82 fibroblasts by own knowledge)
T2 sequence (P05363 1-384): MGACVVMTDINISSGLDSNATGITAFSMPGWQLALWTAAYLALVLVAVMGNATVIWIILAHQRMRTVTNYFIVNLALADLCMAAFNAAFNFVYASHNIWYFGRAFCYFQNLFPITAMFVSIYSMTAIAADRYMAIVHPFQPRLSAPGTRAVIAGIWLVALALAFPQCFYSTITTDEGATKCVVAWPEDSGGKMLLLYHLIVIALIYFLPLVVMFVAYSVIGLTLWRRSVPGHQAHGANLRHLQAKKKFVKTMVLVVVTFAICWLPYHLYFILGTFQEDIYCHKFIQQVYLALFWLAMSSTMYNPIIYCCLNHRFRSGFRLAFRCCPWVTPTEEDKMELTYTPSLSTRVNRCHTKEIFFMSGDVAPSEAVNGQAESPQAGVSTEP
Method: as §1, §2, §3

[3] = target: NK1 receptor (Cavia porcellus, UniProt P30547); assay: Antagonism of SP-induced plasma protein extravasation in guinea pig trachea; type: in vivo; design: SP-induced plasma protein extravasation in guinea pig trachea; from tissue; host or cells: living guinea pig; trachea and primary bronchi; conditions: i.v.
Method: ANTAGONISM OF SP-INDUCED PLASMA PROTEIN EXTRAVASATION IN GUINEA PIG TRACHEA
SP-induced protein leakage through postcapillary venules was assessed by measuring Evans Blue dye accumulation in guinea pig trachea. Animals were anesthetized with pentobarbital then injected with Evans Blue dye (20 mg/kg, i.v., prepared in 0.9% NaCl solution). One minute after dye administration, the antagonist was administered (i.v.) followed by SP (0.3 nmole/kg, i.v.) and, after 5 min, excess dye removed from the circulation by transcardiac perfusion with 50 ml 0.9% NaCl solution. The trachea and primary bronchi were removed, blotted dry and weighed. Dye quantitation was performed spectrophotometrically ([…]) after extracting tissues in formamide for 24 hr at 50° C. Values were subtracted from background (dye only, no agonist). ED50 (dose of compound which inhibits SP-induced plasma protein extravasation by 50%) was calculated from linear regression analysis.

T1 sequence (P25103 whole entry): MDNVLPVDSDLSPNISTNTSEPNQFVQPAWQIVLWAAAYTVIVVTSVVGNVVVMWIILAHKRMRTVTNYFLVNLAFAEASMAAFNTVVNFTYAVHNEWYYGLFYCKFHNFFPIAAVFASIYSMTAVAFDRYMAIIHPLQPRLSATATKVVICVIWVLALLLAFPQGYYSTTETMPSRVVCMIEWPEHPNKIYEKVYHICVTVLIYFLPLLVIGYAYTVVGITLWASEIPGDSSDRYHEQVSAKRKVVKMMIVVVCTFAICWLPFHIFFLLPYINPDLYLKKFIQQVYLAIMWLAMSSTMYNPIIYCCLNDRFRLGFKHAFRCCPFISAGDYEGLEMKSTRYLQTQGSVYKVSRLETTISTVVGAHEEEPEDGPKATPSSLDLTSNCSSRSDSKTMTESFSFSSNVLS
Sequence of NK1 receptor (Cavia porcellus, UniProt P30547) (P30547 whole entry): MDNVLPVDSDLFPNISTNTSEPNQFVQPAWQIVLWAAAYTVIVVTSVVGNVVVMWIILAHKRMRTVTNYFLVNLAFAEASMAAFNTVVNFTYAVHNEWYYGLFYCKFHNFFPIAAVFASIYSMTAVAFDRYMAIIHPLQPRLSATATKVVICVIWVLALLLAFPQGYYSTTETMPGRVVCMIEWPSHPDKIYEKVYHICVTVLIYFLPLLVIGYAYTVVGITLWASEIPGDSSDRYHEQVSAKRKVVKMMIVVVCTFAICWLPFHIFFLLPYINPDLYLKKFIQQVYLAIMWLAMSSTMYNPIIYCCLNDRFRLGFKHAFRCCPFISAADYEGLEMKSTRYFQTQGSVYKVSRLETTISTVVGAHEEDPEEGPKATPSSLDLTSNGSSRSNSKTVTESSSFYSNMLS

Compound: COc1cc(C(=O)N2CCC(CCN3CCC(C(N)=O)(c4ccccc4)CC3)(c3ccc(Cl)c(Cl)c3)C2)cc(OC)c1OC (stereo not drawn) [Example 3, 1-[2-[3-(3,4-dichloro-phenyl)-1-(3,4,5-trimethoxy-benzoyl)-pyrrolidin-3-yl]-ethyl]-4-phenyl-piperidine-4-carboxylic acid amide]
- antagonism of SP induced PI turnover (in words, FIG. 1a) ([1]; UC11 cells): dose related antagonism
- agonist activity, PI turnover in UC11 cells (in words) ([1]; compound alone): no agonist activity
- antagonism of NKA induced PI turnover (in words, FIG. 1b) ([2]; SKLKB82#3 cells): dose related antagonism
- agonist activity, PI turnover in SKLKB82#3 cells (in words) ([2]; compound alone): no agonist activity
- antagonism of SP-induced plasma protein extravasation (in words, FIG. 2) [3]: dose related antagonism
- relative potency as NK-1 receptor antagonists (in words) ([3]; Example 3 versus Example 20A): equipotent
